In BindingDB's records for doi:10.1016/S0960-894X(01)80247-X (1994):

Columns and labels:
Endothelin-1 receptor = target: T1, Endothelin-1 receptor (Rattus norvegicus, UniProt P26684); test: Concentration required to produce 50% inhibition of binding against ET A receptor obtained from rat thoracic aortic membrane
T1 sequence (P26684 whole entry): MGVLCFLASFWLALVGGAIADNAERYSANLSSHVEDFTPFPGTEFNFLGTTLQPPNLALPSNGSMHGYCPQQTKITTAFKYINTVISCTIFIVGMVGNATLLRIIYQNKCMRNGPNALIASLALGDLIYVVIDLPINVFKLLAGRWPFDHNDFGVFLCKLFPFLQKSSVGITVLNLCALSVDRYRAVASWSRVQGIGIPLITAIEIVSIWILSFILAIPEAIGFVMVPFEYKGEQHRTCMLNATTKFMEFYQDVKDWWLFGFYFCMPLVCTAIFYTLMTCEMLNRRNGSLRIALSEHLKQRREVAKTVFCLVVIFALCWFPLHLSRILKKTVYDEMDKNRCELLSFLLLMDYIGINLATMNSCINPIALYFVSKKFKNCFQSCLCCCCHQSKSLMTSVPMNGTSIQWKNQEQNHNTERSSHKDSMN

[1] = target: T2, Endothelin receptor type B (Rattus norvegicus, UniProt P21451); test: Concentration required to produce 50% inhibition of binding against ET B receptor obtained from rat brain membrane
T2 sequence (P21451 whole entry): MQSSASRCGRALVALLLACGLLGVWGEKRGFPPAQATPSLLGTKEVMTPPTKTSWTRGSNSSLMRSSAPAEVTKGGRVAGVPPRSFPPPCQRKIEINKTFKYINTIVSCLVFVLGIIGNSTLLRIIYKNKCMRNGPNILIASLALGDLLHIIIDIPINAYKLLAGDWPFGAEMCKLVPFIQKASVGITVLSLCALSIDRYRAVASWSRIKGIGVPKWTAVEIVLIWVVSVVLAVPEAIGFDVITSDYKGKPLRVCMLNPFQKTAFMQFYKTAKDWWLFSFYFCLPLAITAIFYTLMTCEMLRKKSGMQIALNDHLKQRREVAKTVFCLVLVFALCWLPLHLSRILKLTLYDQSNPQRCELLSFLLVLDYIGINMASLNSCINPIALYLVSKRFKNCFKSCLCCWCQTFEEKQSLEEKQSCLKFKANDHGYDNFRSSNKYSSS

| SMILES | pIC50 (Endothelin-1 receptor) | pIC50 [1] |
| --- | --- | --- |
| CC[C@@H](C)[C@@H](NC(=O)[C@@H](NC(=O)[C@H](CC(=O)O)NC(=O)[C@H](CC(C)C)NC(=O)[C@H](Cc1cnc[nH]1)NC(=O)[C@H](CS)NC(=O)[C@H](Cc1ccccc1)NC(=O)[C@H](Cc1ccc(O)cc1)NC(=O)[C@@H](NC(=O)[C@H](CS)NC(=O)[C@H](CCC(=O)O)NC(=O)[C@H](CCCCN)NC(=O)[C@H](CC(=O)O)NC(=O)[C@H](CCSC)NC(=O)[C@H](CC(C)C)NC(=O)[C@H](CO)NC(=O)[C@H](CO)NC(=O)[C@H](CS)NC(=O)[C@H](CO)NC(=O)[C@@H](N)CS)C(C)C)[C@@H](C)CC)C(=O)N[C@@H](Cc1c[nH]c2ccccc12)C(=O)O [Endothelin-1 analogue] | 7.59 |  |
| CC[C@H](C)[C@H](NC(=O)[C@H](CC(=O)O)NC(=O)[C@H](CC(C)C)NC(=O)[C@H](Cc1cnc[nH]1)NC(=O)[C@H](CS)NC(=O)[C@H](Cc1ccccc1)NC(=O)[C@H](Cc1ccc(O)cc1)NC(=O)[C@@H](NC(=O)[C@H](CS)NC(=O)[C@H](CCC(=O)O)NC(=O)[C@H](CCCCN)NC(=O)[C@H](CC(=O)O)NC(=O)[C@H](CCSC)NC(=O)[C@H](CC(C)C)NC(=O)[C@H](CO)NC(=O)[C@H](CO)NC(=O)[C@H](CS)NC(=O)[C@H](CO)NC(=O)[C@@H](N)CS)C(C)C)C(=O)N[C@@H](Cc1c[nH]c2ccccc12)C(=O)N[C@@H](Cc1c[nH]c2ccccc12)C(=O)O [Endothelin-1 analogue] | 6.71 | 9.77 |
| CC[C@H](C)[C@H](NC(=O)[C@H](CC(=O)O)NC(=O)[C@H](CC(C)C)NC(=O)[C@H](Cc1cnc[nH]1)NC(=O)[C@H](CS)NC(=O)[C@H](Cc1ccccc1)NC(=O)[C@H](Cc1ccc(O)cc1)NC(=O)[C@@H](NC(=O)[C@H](CS)NC(=O)[C@H](CCC(=O)O)NC(=O)[C@H](CCCCN)NC(=O)[C@H](CC(=O)O)NC(=O)[C@H](CCSC)NC(=O)[C@H](CC(C)C)NC(=O)[C@H](CO)NC(=O)[C@H](CO)NC(=O)[C@H](CS)NC(=O)[C@H](CO)NC(=O)[C@@H](N)CS)C(C)C)C(=O)N[C@H](C)C(=O)N[C@@H](Cc1c[nH]c2ccccc12)C(=O)O [Endothelin-1 analogue] | 5.77 | 7.96 |
| CC[C@H](C)[C@H](NC(=O)[C@H](CC(=O)O)NC(=O)[C@H](CC(C)C)NC(=O)[C@H](Cc1cnc[nH]1)NC(=O)[C@H](CS)NC(=O)[C@H](Cc1ccccc1)NC(=O)[C@H](Cc1ccc(O)cc1)NC(=O)[C@@H](NC(=O)[C@H](CS)NC(=O)[C@H](CCC(=O)O)NC(=O)[C@H](CCCCN)NC(=O)[C@H](CC(=O)O)NC(=O)[C@H](CCSC)NC(=O)[C@H](CC(C)C)NC(=O)[C@H](CO)NC(=O)[C@H](CO)NC(=O)[C@H](CS)NC(=O)[C@H](CO)NC(=O)[C@@H](N)CS)C(C)C)C(=O)N[C@@H](C(=O)N[C@@H](Cc1c[nH]c2ccccc12)C(=O)O)c1ccccc1 [Endothelin-1 analogue] | 6.85 | 8.6 |
| CCC(CC)C[C@@H](NC(=O)[C@@H](NC(=O)[C@H](CC(=O)O)NC(=O)[C@H](CC(C)C)NC(=O)[C@H](Cc1cnc[nH]1)NC(=O)[C@H](CS)NC(=O)[C@H](Cc1ccccc1)NC(=O)[C@H](Cc1ccc(O)cc1)NC(=O)[C@@H](NC(=O)[C@H](CS)NC(=O)[C@H](CCC(=O)O)NC(=O)[C@H](CCCCN)NC(=O)[C@H](CC(=O)O)NC(=O)[C@H](CCSC)NC(=O)[C@H](CC(C)C)NC(=O)[C@H](CO)NC(=O)[C@H](CO)NC(=O)[C@H](CS)NC(=O)[C@H](CO)NC(=O)[C@@H](N)CS)C(C)C)[C@H](C)CC)C(=O)N[C@@H](Cc1c[nH]c2ccccc12)C(=O)O [Endothelin-1 analogue] | 8.06 | 9.78 |
| CC[C@H](C)[C@H](NC(=O)[C@H](CC(=O)O)NC(=O)[C@H](CC(C)C)NC(=O)[C@H](Cc1cnc[nH]1)NC(=O)[C@H](CS)NC(=O)[C@H](Cc1ccccc1)NC(=O)[C@H](Cc1ccc(O)cc1)NC(=O)[C@@H](NC(=O)[C@H](CS)NC(=O)[C@H](CCC(=O)O)NC(=O)[C@H](CCCCN)NC(=O)[C@H](CC(=O)O)NC(=O)[C@H](CCSC)NC(=O)[C@H](CC(C)C)NC(=O)[C@H](CO)NC(=O)[C@H](CO)NC(=O)[C@H](CS)NC(=O)[C@H](CO)NC(=O)[C@@H](N)CS)C(C)C)C(=O)N[C@@H](C)C(=O)N[C@@H](Cc1c[nH]c2ccccc12)C(=O)O [Endothelin-1 analogue] | 7.53 | 9.4 |
| CC[C@H](C)[C@H](NC(=O)[C@H](CC(=O)O)NC(=O)[C@H](CC(C)C)NC(=O)[C@H](Cc1cnc[nH]1)NC(=O)[C@H](CS)NC(=O)[C@H](Cc1ccccc1)NC(=O)[C@H](Cc1ccc(O)cc1)NC(=O)[C@@H](NC(=O)[C@H](CS)NC(=O)[C@H](CCC(=O)O)NC(=O)[C@H](CCCCN)NC(=O)[C@H](CC(=O)O)NC(=O)[C@H](CCSC)NC(=O)[C@H](CC(C)C)NC(=O)[C@H](CO)NC(=O)[C@H](CO)NC(=O)[C@H](CS)NC(=O)[C@H](CO)NC(=O)[C@@H](N)CS)C(C)C)C(=O)N[C@@H](C(=O)N[C@@H](Cc1c[nH]c2ccccc12)C(=O)O)C1CCCCC1 [Endothelin-1 analogue] | 7.04 | 9.59 |
| CC[C@@H](C)[C@H](NC(=O)[C@H](CC(=O)O)NC(=O)[C@H](CC(C)C)NC(=O)[C@H](Cc1cnc[nH]1)NC(=O)[C@H](CS)NC(=O)[C@H](Cc1ccccc1)NC(=O)[C@H](Cc1ccc(O)cc1)NC(=O)[C@@H](NC(=O)[C@H](CS)NC(=O)[C@H](CCC(=O)O)NC(=O)[C@H](CCCCN)NC(=O)[C@H](CC(=O)O)NC(=O)[C@H](CCSC)NC(=O)[C@H](CC(C)C)NC(=O)[C@H](CO)NC(=O)[C@H](CO)NC(=O)[C@H](CS)NC(=O)[C@H](CO)NC(=O)[C@@H](N)CS)C(C)C)C(=O)N[C@H](CCC(N)=O)C(=O)N[C@@H](Cc1c[nH]c2ccccc12)C(=O)O [Endothelin-1 analogue] | 5.27 | 5.59 |
| CCC[C@@H](NC(=O)[C@@H](NC(=O)[C@H](CC(=O)O)NC(=O)[C@H](CC(C)C)NC(=O)[C@H](Cc1cnc[nH]1)NC(=O)[C@H](CS)NC(=O)[C@H](Cc1ccccc1)NC(=O)[C@H](Cc1ccc(O)cc1)NC(=O)[C@@H](NC(=O)[C@H](CS)NC(=O)[C@H](CCC(=O)O)NC(=O)[C@H](CCCCN)NC(=O)[C@H](CC(=O)O)NC(=O)[C@H](CCSC)NC(=O)[C@H](CC(C)C)NC(=O)[C@H](CO)NC(=O)[C@H](CO)NC(=O)[C@H](CS)NC(=O)[C@H](CO)NC(=O)[C@@H](N)CS)C(C)C)[C@H](C)CC)C(=O)N[C@@H](Cc1c[nH]c2ccccc12)C(=O)O [Endothelin-1 analogue] | 7.6 | 10 |
| CC[C@@H](C)[C@H](NC(=O)[C@H](CC(=O)O)NC(=O)[C@H](CC(C)C)NC(=O)[C@H](Cc1cnc[nH]1)NC(=O)[C@H](CS)NC(=O)[C@H](Cc1ccccc1)NC(=O)[C@H](Cc1ccc(O)cc1)NC(=O)[C@@H](NC(=O)[C@H](CS)NC(=O)[C@H](CCC(=O)O)NC(=O)[C@H](CCCCN)NC(=O)[C@H](CC(=O)O)NC(=O)[C@H](CCSC)NC(=O)[C@H](CC(C)C)NC(=O)[C@H](CO)NC(=O)[C@H](CO)NC(=O)[C@H](CS)NC(=O)[C@H](CO)NC(=O)[C@@H](N)CS)C(C)C)C(=O)N[C@H](Cc1cnc[nH]1)C(=O)N[C@@H](Cc1c[nH]c2ccccc12)C(=O)O [Endothelin-1 analogue] | 6.13 | 7.55 |
| CC[C@@H](C)[C@H](NC(=O)[C@H](CC(=O)O)NC(=O)[C@H](CC(C)C)NC(=O)[C@H](Cc1cnc[nH]1)NC(=O)[C@H](CS)NC(=O)[C@H](Cc1ccccc1)NC(=O)[C@H](Cc1ccc(O)cc1)NC(=O)[C@@H](NC(=O)[C@H](CS)NC(=O)[C@H](CCC(=O)O)NC(=O)[C@H](CCCCN)NC(=O)[C@H](CC(=O)O)NC(=O)[C@H](CCSC)NC(=O)[C@H](CC(C)C)NC(=O)[C@H](CO)NC(=O)[C@H](CO)NC(=O)[C@H](CS)NC(=O)[C@H](CO)NC(=O)[C@@H](N)CS)C(C)C)C(=O)N[C@H](CC(C)C)C(=O)N[C@@H](Cc1c[nH]c2ccccc12)C(=O)O [Endothelin-1 analogue] | 7.97 | 9.94 |
| CC[C@H](C)[C@H](NC(=O)[C@H](CC(=O)O)NC(=O)[C@H](CC(C)C)NC(=O)[C@H](Cc1cnc[nH]1)NC(=O)[C@H](CS)NC(=O)[C@H](Cc1ccccc1)NC(=O)[C@H](Cc1ccc(O)cc1)NC(=O)[C@@H](NC(=O)[C@H](CS)NC(=O)[C@H](CCC(=O)O)NC(=O)[C@H](CCCCN)NC(=O)[C@H](CC(=O)O)NC(=O)[C@H](CCSC)NC(=O)[C@H](CC(C)C)NC(=O)[C@H](CO)NC(=O)[C@H](CO)NC(=O)[C@H](CS)NC(=O)[C@H](CO)NC(=O)[C@@H](N)CS)C(C)C)C(=O)N[C@H](C(=O)N[C@@H](Cc1c[nH]c2ccccc12)C(=O)O)[C@@H](C)CC [Endothelin-1 analogue] | 9.93 |  |
